“And” between values parts separate entries of the source, which are not always exact repeats. Equal entries are not always repeated. The source made the active and inactive calls. Where only a bound is given, the exact number is not on record here.

Test [1] is described as follows: inhibitors of cytokine-induced nitrite release, dose response, cell-based, Griess absorbance, INS-1E, dry powder, set 3 (AID 488870). Format: functional. The note with it: Rattus norvegicus. (In general: The Griess reaction detects nitrite, a stable product of nitric oxide.)
A further test relates to INS1. Kind of test: inhibitors of cytokine-induced nitrite release, dose response, cell-based, Griess absorbance, INS-1E, dry powder, set 2 (AID 488868). The format is functional. The conditions noted are these: Rattus norvegicus.
Test [2] deals with Protein disulfide-isomerase (Homo sapiens, UniProt P07237). Kind of test: PDI inhibitors, insulin aggregation turbidity, dose response, biochemical, absorbance, cherry-picked samples (AID 602350). Format: functional.
Sequence of Protein disulfide-isomerase (P07237 whole entry): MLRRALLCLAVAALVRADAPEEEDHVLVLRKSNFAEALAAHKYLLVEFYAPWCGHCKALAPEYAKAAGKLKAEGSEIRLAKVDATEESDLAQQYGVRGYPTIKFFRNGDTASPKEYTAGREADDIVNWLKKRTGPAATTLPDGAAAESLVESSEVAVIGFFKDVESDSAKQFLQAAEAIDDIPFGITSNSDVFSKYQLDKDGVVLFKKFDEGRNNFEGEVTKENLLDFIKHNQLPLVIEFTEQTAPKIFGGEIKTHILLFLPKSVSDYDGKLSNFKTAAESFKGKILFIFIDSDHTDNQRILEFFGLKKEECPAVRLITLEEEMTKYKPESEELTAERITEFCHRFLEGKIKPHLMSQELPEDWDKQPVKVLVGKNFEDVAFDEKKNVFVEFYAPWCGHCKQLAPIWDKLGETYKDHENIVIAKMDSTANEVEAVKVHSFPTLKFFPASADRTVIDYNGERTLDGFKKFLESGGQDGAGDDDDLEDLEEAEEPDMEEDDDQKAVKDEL
Test [3] concerns the target DNA dC->dU-editing enzyme APOBEC-3A (Homo sapiens, UniProt P31941). Kind of test: SAR analysis of small molecule inhibitors of APOBEC3A DNA Deaminase via a fluorescence-based single-stranded DNA deaminase assay. The format is functional. The note with it: read-out: IC50_Mean.
Test [4] deals with T1, DNA dC->dU-editing enzyme APOBEC-3G (Homo sapiens, UniProt Q9HC16). Kind of test: APOBEC3G deaminase inhibitors, SAR follow-up, biochemical, fluorescence, single-stranded DNA substrate (AID 602136). The format is functional. The note with it: read-out: IC50_Mean.
T1 sequence (Q9HC16 whole entry): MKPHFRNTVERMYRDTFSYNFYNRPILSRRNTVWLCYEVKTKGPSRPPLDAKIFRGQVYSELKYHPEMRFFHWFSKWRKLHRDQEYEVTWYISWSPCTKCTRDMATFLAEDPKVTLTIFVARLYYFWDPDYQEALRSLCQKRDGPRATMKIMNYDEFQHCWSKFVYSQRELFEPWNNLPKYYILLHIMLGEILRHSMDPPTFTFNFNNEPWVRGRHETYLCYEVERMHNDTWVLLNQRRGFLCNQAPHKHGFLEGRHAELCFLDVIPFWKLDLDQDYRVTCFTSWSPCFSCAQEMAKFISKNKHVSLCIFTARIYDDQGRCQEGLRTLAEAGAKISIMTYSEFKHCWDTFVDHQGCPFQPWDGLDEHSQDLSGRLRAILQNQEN
Test [5] deals with T2, V-type proton ATPase subunit c' (Saccharomyces cerevisiae S288c, UniProt P32842). Kind of test: Dose Response of Small Molecules that Regulate V-ATPase Proton Transport in Yeast using pHLuorin, Cherry Pick 2. Format: functional. The note with it: read-out: EC50_MICROM.
T2 sequence (P32842 whole entry): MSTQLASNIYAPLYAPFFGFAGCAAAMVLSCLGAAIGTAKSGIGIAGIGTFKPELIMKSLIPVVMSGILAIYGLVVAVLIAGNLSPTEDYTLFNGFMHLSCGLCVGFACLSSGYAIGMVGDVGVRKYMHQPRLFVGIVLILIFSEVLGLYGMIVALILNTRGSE
Test [6] concerns the target T2, V-type proton ATPase subunit c'. Kind of test: Dose Response with BCECF Assay for V-ATPase inhibitors that increase vacuolar pH, Powder Set 1. The format is functional. The note with it: read-out: EC50_MICROM.
Another test can be described thus: cells. Format: functional.
Test [7] in a line: SAR analysis of small molecule activators of Apaf-1 using a LZ-Caspase-9/Caspase-3 Fluorescent Selectivity assay - Set 2. The conditions noted are these: read-out: EC50_Mean. The format is functional.
Test [8] addresses T3, Apoptotic protease-activating factor 1 (Homo sapiens, UniProt O14727).
T3 sequence (O14727 whole entry): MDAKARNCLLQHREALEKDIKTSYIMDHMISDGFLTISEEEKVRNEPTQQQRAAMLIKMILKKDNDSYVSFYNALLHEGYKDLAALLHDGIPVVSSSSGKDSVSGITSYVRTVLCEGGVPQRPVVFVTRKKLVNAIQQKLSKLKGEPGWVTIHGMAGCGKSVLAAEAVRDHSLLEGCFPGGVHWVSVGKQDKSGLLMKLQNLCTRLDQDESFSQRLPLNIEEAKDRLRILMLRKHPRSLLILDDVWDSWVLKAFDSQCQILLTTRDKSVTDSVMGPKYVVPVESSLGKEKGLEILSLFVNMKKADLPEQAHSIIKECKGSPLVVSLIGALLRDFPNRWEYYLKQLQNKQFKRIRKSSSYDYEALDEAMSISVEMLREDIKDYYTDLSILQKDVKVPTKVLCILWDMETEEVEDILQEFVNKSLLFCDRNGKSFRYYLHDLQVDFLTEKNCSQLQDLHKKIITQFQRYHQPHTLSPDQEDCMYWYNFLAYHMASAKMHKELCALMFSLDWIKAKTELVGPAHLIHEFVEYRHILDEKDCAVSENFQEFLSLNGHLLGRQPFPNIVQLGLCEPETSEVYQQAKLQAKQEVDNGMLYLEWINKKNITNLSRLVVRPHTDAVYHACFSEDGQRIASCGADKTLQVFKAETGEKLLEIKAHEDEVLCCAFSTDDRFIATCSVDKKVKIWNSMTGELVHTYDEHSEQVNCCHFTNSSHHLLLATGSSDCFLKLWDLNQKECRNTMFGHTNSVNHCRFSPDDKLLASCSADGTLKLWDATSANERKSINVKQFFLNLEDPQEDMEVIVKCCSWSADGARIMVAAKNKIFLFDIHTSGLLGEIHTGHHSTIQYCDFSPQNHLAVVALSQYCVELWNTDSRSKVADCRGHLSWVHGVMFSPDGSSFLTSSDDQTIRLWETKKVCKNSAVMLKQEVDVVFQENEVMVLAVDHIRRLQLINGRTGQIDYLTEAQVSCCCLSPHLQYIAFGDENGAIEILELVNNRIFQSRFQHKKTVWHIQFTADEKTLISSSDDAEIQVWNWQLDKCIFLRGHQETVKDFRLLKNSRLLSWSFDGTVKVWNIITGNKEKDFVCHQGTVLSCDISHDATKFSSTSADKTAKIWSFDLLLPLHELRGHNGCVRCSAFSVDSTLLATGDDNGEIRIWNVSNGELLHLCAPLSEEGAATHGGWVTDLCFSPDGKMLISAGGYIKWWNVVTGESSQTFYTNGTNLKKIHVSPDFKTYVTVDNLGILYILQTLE
As to the kind of experiment: SAR analysis of small molecule Activators of Apaf-1 in a Fluorescent assay - set 2. The format is functional. The conditions noted are these: read-out: EC50_Mean.

Test [9] addresses T1, DNA dC->dU-editing enzyme APOBEC-3G. As to the kind of experiment: Dose Response confirmation of small molecule APOBEC3G DNA Deaminase Inhibitors via a fluorescence-based single-stranded DNA deaminase assay. [Related pubchem assays (depositor defined):AID493012, AID493028]. Format: functional.
Test [10] deals with T3, Apoptotic protease-activating factor 1. As to the kind of experiment: SAR analysis of small molecule Activators of Apaf-1 in a Fluorescent assay. The format is functional. The note with it: read-out: EC50_Mean.
The target of the next test is Melanocortin receptor 4 (Homo sapiens, UniProt P32245). As to the kind of experiment: MC4R antagonist potency on cAMP, dose response, cell-based, TR-FRET, biased antagonists (AID 602298).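 Also: antagonist potency against agonist-stimulated cAMP production.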 Format: functional. For orientation: In TR-FRET formats the signal depends on donor and acceptor labels being close together.
Sequence of Melanocortin receptor 4 (P32245 whole entry): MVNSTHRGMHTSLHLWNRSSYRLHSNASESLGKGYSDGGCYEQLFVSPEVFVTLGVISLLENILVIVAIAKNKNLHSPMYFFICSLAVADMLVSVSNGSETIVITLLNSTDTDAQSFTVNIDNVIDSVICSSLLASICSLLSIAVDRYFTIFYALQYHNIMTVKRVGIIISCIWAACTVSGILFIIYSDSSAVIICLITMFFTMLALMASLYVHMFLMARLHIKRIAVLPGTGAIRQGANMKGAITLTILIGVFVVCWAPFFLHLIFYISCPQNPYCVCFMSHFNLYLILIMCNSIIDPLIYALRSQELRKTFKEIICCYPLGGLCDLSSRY
Test [11] in a line: nonselective inhibitors of cellular cAMP signaling, dose response, counter-screen for MC4R biased antagonist project, cell-based, TR-FRET cAMP detection (AID 602305).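 Also: U2OS cells stimulated with forskolin near its EC80 as the cAMP inducer; potency is for inhibition of forskolin-stimulated cAMP signaling.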 The format is functional. For orientation: A counterscreen serves to expose hits that act by an unwanted route or on another target.
For test [12], the target named is T4, Neuropeptides B/W receptor type 1 (Homo sapiens, UniProt P48145).
T4 sequence (P48145 whole entry): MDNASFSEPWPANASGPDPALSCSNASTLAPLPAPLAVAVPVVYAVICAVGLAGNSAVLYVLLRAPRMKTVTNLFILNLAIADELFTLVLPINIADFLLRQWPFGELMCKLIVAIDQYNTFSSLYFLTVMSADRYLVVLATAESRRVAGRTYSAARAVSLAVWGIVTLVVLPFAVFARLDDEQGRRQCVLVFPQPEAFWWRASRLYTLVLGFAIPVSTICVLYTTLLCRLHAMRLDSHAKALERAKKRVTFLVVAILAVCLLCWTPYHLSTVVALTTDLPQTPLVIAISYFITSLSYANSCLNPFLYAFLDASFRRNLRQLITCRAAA
As to the kind of experiment: GPR7 antagonist potency, late-stage follow-up, cell-based, fluorescence, dose response, set 5 (AID 588566). Format: functional.

The target of test [13] is Melanin-concentrating hormone receptor 1 (Homo sapiens, UniProt Q99705). As to the kind of experiment: Late-stage fluorescence-based counterscreen for antagonists of the G-protein coupled receptor 7 (GPR7): cell-based dose response assay to identify antagonists of the melanin-concentrating hormone receptor 1 (MCHR1) Set 5. Format: functional.
Sequence of Melanin-concentrating hormone receptor 1 (Q99705 whole entry): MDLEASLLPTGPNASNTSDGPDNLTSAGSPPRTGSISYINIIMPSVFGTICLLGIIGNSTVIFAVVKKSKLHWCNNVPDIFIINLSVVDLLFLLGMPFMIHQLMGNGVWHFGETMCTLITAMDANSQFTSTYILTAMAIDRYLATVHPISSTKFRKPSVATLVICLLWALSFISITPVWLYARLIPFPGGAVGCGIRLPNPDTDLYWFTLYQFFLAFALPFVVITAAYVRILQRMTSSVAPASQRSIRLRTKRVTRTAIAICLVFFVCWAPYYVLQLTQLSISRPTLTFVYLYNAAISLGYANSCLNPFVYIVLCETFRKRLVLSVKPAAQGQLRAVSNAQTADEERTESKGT
Test [14] addresses Multidrug resistance protein CDR2 (Candida albicans (strain SC5314 / ATCC MYA-2876) (Yeast), UniProt P78595). Kind of test: CaCDR2 efflux pump inhibitors in yeast, dose response, S. cerevisiae AD1-8u, singleplex, Cherry Pick1 hits (AID 588604). Format: functional.
Test [15] addresses T5, Sentrin-specific protease 8 (Homo sapiens, UniProt Q96LD8).
T5 sequence (Q96LD8 whole entry): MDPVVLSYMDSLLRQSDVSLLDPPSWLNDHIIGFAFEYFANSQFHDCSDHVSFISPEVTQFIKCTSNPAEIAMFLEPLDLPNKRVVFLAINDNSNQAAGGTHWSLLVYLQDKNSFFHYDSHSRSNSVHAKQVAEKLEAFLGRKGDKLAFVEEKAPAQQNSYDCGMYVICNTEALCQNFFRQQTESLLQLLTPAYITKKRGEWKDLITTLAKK
The format is functional.

Test [16] has as its target T6, Histone-lysine N-methyltransferase NSD2 (Homo sapiens, UniProt O96028).
T6 sequence (O96028 whole entry): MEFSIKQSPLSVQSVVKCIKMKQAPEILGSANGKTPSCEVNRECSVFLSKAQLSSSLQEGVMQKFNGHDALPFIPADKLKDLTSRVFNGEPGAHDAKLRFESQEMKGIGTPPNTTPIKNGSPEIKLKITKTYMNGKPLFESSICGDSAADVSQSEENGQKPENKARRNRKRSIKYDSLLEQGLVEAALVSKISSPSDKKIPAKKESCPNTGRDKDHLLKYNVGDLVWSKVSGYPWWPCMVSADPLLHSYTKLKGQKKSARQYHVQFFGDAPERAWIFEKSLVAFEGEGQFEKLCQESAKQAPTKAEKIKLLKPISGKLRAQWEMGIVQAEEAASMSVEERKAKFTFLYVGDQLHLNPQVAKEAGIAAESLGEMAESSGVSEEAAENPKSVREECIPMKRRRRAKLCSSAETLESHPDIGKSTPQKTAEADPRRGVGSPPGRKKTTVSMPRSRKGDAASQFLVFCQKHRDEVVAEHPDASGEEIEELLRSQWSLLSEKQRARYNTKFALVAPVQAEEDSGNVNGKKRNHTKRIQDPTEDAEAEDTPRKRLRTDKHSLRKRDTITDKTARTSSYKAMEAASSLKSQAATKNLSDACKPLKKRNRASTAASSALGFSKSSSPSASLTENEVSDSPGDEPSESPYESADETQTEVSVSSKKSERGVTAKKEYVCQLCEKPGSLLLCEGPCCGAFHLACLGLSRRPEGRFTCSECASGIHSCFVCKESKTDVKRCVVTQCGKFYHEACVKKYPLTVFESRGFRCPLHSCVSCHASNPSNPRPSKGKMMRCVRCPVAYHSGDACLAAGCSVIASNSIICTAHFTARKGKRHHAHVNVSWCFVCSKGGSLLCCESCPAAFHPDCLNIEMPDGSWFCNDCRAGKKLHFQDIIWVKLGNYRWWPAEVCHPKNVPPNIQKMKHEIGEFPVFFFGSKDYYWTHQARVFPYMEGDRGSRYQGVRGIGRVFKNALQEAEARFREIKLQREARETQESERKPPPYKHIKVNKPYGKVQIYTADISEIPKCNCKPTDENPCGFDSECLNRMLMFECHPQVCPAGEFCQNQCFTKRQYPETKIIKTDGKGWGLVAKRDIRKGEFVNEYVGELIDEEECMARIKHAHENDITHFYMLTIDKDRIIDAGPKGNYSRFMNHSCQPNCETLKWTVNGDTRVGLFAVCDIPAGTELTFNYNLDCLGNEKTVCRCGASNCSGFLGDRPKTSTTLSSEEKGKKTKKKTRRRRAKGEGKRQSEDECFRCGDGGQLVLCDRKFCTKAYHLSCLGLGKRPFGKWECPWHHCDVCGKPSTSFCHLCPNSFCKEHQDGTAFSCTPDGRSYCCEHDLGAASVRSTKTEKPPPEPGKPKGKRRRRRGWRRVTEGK
The format is biochemical.

Test [17] concerns the target T3, Apoptotic protease-activating factor 1. Format: functional.
Test [18] deals with T5, Sentrin-specific protease 8. Format: functional. This is another data set of the same source.
The target of test [19] is Tyrosyl-DNA phosphodiesterase 2 (Homo sapiens, UniProt O95551). As to the kind of experiment: human TDP2 enzyme inhibitors, dose response, biochemical, epi absorbance, IC50 (AID 743297).
Sequence of Tyrosyl-DNA phosphodiesterase 2 (O95551 whole entry): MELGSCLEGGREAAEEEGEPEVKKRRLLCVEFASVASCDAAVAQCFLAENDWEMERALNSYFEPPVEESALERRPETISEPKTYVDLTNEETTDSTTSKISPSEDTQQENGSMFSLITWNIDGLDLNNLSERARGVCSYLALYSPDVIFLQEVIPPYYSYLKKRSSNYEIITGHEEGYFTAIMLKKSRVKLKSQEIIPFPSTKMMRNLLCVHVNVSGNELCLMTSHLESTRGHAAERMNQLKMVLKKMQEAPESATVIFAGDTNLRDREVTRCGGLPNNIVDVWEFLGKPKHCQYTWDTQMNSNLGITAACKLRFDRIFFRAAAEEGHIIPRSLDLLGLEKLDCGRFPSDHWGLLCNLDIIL

Sequence of DNA dC->dU-editing enzyme APOBEC-3A (P31941 whole entry): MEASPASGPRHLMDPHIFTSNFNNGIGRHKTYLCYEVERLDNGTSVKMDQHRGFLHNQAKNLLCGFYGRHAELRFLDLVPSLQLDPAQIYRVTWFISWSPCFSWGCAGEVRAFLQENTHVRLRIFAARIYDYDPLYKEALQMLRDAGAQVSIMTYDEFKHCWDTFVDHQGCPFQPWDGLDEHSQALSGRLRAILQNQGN
Sequence of Multidrug resistance protein CDR2 (P78595 whole entry): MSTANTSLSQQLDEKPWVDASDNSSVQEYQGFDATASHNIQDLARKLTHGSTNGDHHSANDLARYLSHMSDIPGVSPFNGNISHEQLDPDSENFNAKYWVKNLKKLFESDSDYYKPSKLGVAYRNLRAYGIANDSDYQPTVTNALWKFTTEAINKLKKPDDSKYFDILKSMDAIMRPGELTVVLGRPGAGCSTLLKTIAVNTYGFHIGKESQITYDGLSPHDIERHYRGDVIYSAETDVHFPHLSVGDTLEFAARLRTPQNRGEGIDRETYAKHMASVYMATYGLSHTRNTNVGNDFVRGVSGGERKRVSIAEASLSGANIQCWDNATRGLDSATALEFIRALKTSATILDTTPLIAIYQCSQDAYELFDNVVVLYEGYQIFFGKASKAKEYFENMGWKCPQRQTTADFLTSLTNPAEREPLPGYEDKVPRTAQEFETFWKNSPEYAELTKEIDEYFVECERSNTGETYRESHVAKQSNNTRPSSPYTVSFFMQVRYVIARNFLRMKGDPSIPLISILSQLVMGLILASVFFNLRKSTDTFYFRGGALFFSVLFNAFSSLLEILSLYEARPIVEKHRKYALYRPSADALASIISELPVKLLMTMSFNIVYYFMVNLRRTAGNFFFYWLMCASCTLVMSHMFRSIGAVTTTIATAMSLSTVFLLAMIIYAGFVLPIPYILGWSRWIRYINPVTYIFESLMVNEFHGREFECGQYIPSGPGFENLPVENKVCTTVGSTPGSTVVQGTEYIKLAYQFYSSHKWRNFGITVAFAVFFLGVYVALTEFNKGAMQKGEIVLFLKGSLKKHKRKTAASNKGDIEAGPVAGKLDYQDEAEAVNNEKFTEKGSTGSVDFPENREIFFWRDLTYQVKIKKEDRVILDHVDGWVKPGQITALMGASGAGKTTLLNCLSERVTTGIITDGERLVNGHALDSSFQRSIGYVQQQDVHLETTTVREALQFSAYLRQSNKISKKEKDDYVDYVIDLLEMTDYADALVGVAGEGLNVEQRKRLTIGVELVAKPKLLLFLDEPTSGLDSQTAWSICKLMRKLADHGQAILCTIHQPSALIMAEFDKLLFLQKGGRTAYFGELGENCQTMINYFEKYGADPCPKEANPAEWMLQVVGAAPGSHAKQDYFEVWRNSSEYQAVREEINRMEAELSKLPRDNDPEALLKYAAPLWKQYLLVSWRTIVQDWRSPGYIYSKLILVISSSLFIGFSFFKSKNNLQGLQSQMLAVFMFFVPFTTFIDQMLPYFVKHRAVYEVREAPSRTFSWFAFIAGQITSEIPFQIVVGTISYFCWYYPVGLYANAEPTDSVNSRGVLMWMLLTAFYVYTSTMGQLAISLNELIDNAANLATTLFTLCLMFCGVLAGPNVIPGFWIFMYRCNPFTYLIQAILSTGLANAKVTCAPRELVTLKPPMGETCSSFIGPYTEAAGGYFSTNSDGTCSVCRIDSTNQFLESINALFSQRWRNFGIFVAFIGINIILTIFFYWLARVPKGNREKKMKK

As to `COc1ccc(S(=O)(=O)N(C)C[C@@H]2Oc3c(NC(=O)NC4CCCCC4)cccc3C(=O)N([C@@H](C)CO)C[C@H]2C)cc1`, the AC50 in test [1] is 64.5 µM (active); in the test on INS1 it was 44.5 µM (active).
For `C[C@H](CO)N1C[C@H](C)[C@@H](CN(C)S(=O)(=O)c2ccc(F)cc2)Oc2ccc(NC(=O)Cc3cn(C)c4ccccc34)cc2C1=O`, the AC50 in [2] was 19.5 µM (active).
For `Cc1cc(C(=O)CSc2nnc3scc(-c4ccccc4)n23)c(C)n1-c1cc(F)ccc1F`, the IC50 in test [3] and in test [4] was > 99 µM (inactive) each time.
In the case of `O=C(c1ccc([N+](=O)[O-])o1)N1CCN(c2nc3ccc(F)cc3s2)CC1`, the EC50 in test [5] is 3.64 µM (active); in test [6], 0.384 µM (active). Besides, the IC50 in “cells” was < 0.1 µM (active).
Consider `O=C(O)C1CC(c2ccc(F)cc2)=NO1` (configuration not stated), for which the EC50 in test [7] is > 100 µM (inactive) and > 99 µM (inactive); in test [8] it was 6.39 µM (active) and 3.86 µM (active) and > 99 µM (inactive); in test [10], 6.69 µM (active). In addition, the IC50 in test [9] is 10.9 µM (active).
For the compound `Cn1ccs/c1=N\C(=O)c1ccc(S(C)(=O)=O)c([N+](=O)[O-])c1`, the IC50 (on Melanocortin receptor 4; in [11]) was > 64.6 µM (inactive) each time.
Consider `CCOc1ccc(Sc2cnn(Cc3cccc4ccccc34)c(=O)c2Cl)cc1`, for which the IC50 in test [12] was 5 µM (active); in test [13] it was > 20 µM (inactive).
Consider `COc1ccc2nccc(/C=C/c3ccnc4ccc(OC)cc34)c2c1`, for which the EC50 in [14] was 14 µM (active).
For `C[n+]1cccc2c(Br)ccc([O-])c21`, the IC50 in test [15] was 1.64 µM (active); in test [17] it was 92 µM (active); in test [18] it was 4.18 µM (active); in test [19] it was > 42.8 µM (inactive). For the same compound, the AC50 in test [16] was 7.45 µM (active).

A word on the AC50: it is the concentration giving half of the maximal activity seen.

Source of the values: ChEMBL document CHEMBL1201862, “PubChem BioAssay data set” (2004).
